# Source: patent US5155259A, “Aldose reductase inhibitor” (Toyo Jozo Kabushiki Kaisha, priority 1990, dated 1992)
# Assays:
# [1] = target: T1, aldose reductase, originating from the lens of cattle (Bos taurus, UniProt P16116); experiment: Enzyme reaction inhibiting activity (aldose reductase, NADPH / D,L-glyceraldehyde, absorbance at 340 nm); assay type: biochemical; settings: for inhibition at 0.1 µg: concentration of 0.1 γ, pH 6.0, 37° C.
# T1 construct: originating from the lens of cattle, was employed after being subjected to a partial purification; from tissue; host or cells: lens of cattle, partially purified
# Procedure: The preparation of aldose reductase and the determination of its enzyme reaction inhibiting activity were carried out pursuant to the procedures disclosed by Haymann et al. in Journal of Biological Chemistry, 240, 877 (1965).
# The sample solution to be examined for inhibiting activity was prepared by dissolving an amount of a compound of formula (I) according to the present invention in a small amount of methanol and increasing the volume of the resulting methanol solution by diluting it with distilled water up to tenfold volume. As the enzyme, i.e. aldose reductase, originating from the lens of cattle, was employed after being subjected to a partial purification.
# To 2.4 ml of 5×10^-5 M NADPH solution dissolved in a 2/15 M phosphate buffer solution (pH 6.0), 0.4 ml of the enzyme solution and 0.1 ml of the sample solution to be examined were added and the mixture was charged in a quartz cell in a photoelectric photometer and was subjected to preincubation at 37° C. for 4 mins. Then, 0.1 ml of a 0.015 M D,L-glyceraldehyde solution was added thereto for initiating the enzyme reaction and the decrease in the photoabsorbance at 340 nm was measured at 37° C. for 4 mins. The aldose reductase inhibiting activity calculated by [formula] in which A represents the enzyme reaction rate with addition of the inhibitor and B denotes the enzyme reaction rate without addition of the inhibitor.
# [2] = system: sorbitol accumulation in lens; experiment: Activity for suppressing accumulation of sorbitol, tissue culture of lens; assay type: cell-based, Wistar rats; settings: for Inhibition of Sorbite Accumulat. in Lens: concentration of 2.5 γ, rat lens cultured 20 hours with added glucose
# Procedure: (§1) Lenses and sciatic nerves excised from 7 weeks-old male Wistar rats were washed twice with an aseptic buffer solution consisting of 0.3% trisaminomethane, 0.8% NaCl, 0.038% KCl, 0.025% Na2 HPO4.12H2 O, 0.1% glucose and 1.85 ml/1 of concentrated HCl.
# (§2) The lenses and the sciatic nerves were then treated by a 30 mins. preculture in a culture medium prepared by adding 2 ml of 7.5% conc. aseptic NaHCO3 solution and 5.5 ml of aseptic calf fetus serum to 100 ml of an aseptic culture medium of 0.98% TC Medium 199 (supplied from the firm NISSUI) containing 0.01% of dihydrostreptomycin and 0.01% of benzyl-penicillin. Thereafter, the intrinsic culture was effected in a culture medium prepared by adding each sample solution to be examined and 0.09% of glucose to the above-mentioned culture medium and permitting culturing to proceed for 20 hours. The culturing was effected at 37° C. in an atmosphere composed of 95% air and 5% CO2.
# (§3) After culturing, the cultured samples of lens and sciatic nerve were removed from the culture medium to filter paper and the weight of each of them was measured after the adherent culture solution had been blown off. Then, each of the cultured samples was homogenized with the addition of 1 ml of a cold 8% HClO4 solution and the homogenized mixture was subjected to centrifugation at 10,000 G for 10 mins., whereby a supernatant was obtained. The resulting precipitate was then homogenized again with addition thereto of 0.5 ml of cold 8% HClO4 solution and the homogenized mixture was again subjected to centrifugation in a similar way as above to obtain a further supernatant. This was combined with the previously obtained supernatant and the resulting solution was neutralized with 2 N KOH aq. solution and was diluted with distilled water to a volume of 5 ml. The precipitate formed by neutralization was separated by centrifugation at 3,000 rpm for 10 mins. and the resulting supernatant was employed as the sample for determining the sorbitol content.
# (§4) The determination of the sorbitol content in the lens and in the sciatic nerve was carried out in accordance with the technique of Bergmeyer in "Methods of Enzymatic Analysis" edited by H.U. Bergmeyer, pp 1323-1326, Academic Press, New York, 1974 and in accordance with the technique proposed by Malaon et al. in "Diabetes" 29, 861-864 (1980).
# (§5) To 0.5 ml of the sample solution for determination of sorbitol content obtained as above, 0.9 ml of 0.1 M glycine-KOH buffer solution (pH 9.4) containing 1 mM of NAD^+ and 0.1 ml of a solution of sorbitol dehydrogenase of 20 units/ml were added and the resulting mixture was subjected to incubation at 37° C. for 1 hour.
# (§6) The content of sorbitol in each tissue was estimated by assuming the increment of the photoabsorbance at 340 nm to be proportional to the amount of NADH produced by the reaction for the lens and by detecting the fluorescence with an excitation wavelength of 366 nm and a fluorescence wavelength of 425 nm for the sciatic nerve.
# (§7) The activity for suppressing accumulation of sorbitol, i.e. the aldose reductase inhibiting activity, was calculated from the determined sorbitol content by the calculation formula [formula] in which A denotes the content of sorbitol per unit weight of the tissue after cultivation with addition of the inhibitor, B denotes the sorbitol content per unit weight of the tissue after cultivation without addition of the inhibitor and C represents the sorbitol content per unit weight of the tissue after cultivation in the medium without addition of glucose and inhibitor.
# [3] = system: sorbitol accumulation in sciatic nerve; experiment: Activity for suppressing accumulation of sorbitol, tissue culture of sciatic nerve; assay type: cell-based, Wistar rats; settings: concentration of 1.0 γ; rat sciatic nerve cultured 20 hours with added glucose
# Procedure: as §1, §2, §3, §4, §5, §6, §7
# STD-DDY mice = experiment: Acute toxicity, oral; assay type: in vivo; settings: orally 400 mg/20 ml/kg, dissolved with aqueous NaOH at pH 6.5-7.0, observed for 10 days
# Procedure: Compounds of formula (I) according to the present invention, as given in the examples below or 2,2'-dimethoxy-5, 5'-bis(3-carboxypropyl) biphenyl, were suspended in distilled water and were dissolved completely by adding at least the equimolar amount of aqueous NaOH solution. […] No fatality was marked in any of the administered groups.
Molecule,inhibition at 0.1 µg [1],Inhibition of Sorbite Accumulat. in Lens [2],Inhibition of Sorbite Accum. in Sciatic N. [3],"aldose reductase inhibiting activity (in words) ([1]; tests according to 1) and 2), concentration not given)",activity for suppressing accumulation of sorbitol (in words) ([2]; tissue and concentration not stated),fatality (acute toxicity) (STD-DDY mice)
"O=C(O)CCc1ccc(OCC2CCCCC2)c(-c2cc(CCC(=O)O)ccc2OCC2CCCCC2)c1 [2,2'-dicyclohexylmethoxy-5,5'-bis(2-carboxyethyl) biphenyl]",44%,51%,,,,
"O=C(O)CCCc1ccc(OCC2CCCCC2)c(-c2cc(CCCC(=O)O)ccc2OCC2CCCCC2)c1 [2,2'-dicyclohexylmethoxy-5,5'-bis(3-carboxypropyl) biphenyl]",45%,57%,,,,
"2,2'-dimethoxy-5, 5'-bis(3-carboxypropyl) biphenyl diester",,,,did not exhibit any aldose reductase inhibiting activity,no activity for suppressing accumulation of sorbitol,
"COc1ccc(CCCC(=O)O)cc1-c1cc(CCCC(=O)O)ccc1OC [R=CH3, n=3, 2,2'-dimethoxy-5,5'-bis (3-carboxypropyl) biphenyl]",63%,85%,92%,,,No fatality

# Now from value to molecule, other results behind:
inhibition at 0.1 µg [1],Molecule,Inhibition of Sorbite Accumulat. in Lens [2],Inhibition of Sorbite Accum. in Sciatic N. [3],"aldose reductase inhibiting activity (in words) ([1]; tests according to 1) and 2), concentration not given)",activity for suppressing accumulation of sorbitol (in words) ([2]; tissue and concentration not stated),fatality (acute toxicity) (STD-DDY mice)
44%,"COc1ccc(CCC(=O)O)cc1-c1cc(CCC(=O)O)ccc1OC [R=CH3, n=2, 2,2'-dimethoxy-5,5'-bis(2-carboxyethyl) biphenyl]",76%,85%,,,
57%,"CCCOc1ccc(CCCC(=O)O)cc1-c1cc(CCCC(=O)O)ccc1OCCC [R=C3H7, n=3, 2,2'-dipropoxy-5,5'-bis(3-carboxypropyl) biphenyl]",68%,67%,,,
43%,"CCOc1ccc(CCC(=O)O)cc1-c1cc(CCC(=O)O)ccc1OCC [R=C2H5, n=2, 2,2'-diethoxy-5,5'-bis(2-carboxyethyl) biphenyl]",56%,69%,,,
48%,"CCCCCOc1ccc(CCCC(=O)O)cc1-c1cc(CCCC(=O)O)ccc1OCCCCC [R=C5H11, n=3, 2,2'-dipentyloxy-5,5,'-bis(3-carboxypropyl) biphenyl]",,,,,
35%,"CCCOc1ccc(CCC(=O)O)cc1-c1cc(CCC(=O)O)ccc1OCCC [R=C3H7, n=2, 2,2'-dipropoxy-5,5'-bis(2-carboxyethyl) biphenyl]",66%,67%,,,
77%,"CCOc1ccc(CCCC(=O)O)cc1-c1cc(CCCC(=O)O)ccc1OCC [R=C2H5, n=3, 2,2'-diethoxy-5,5'-bis(3-carboxypropyl) biphenyl]",76%,80%,,,
